Test results reported in PubChem BioAssay AID330 (DTP/NCI, 2004).
Several values for one entry are separate records, joined by “and”; a condition that tells them apart may be missing. Identical values can stand only once. Toxic doses and inconclusive results are not listed.

System: P388 leukemia ip, CD2F1 mice, survival T/C
Assay: NCI In Vivo Anticancer Drug Screen. Data for tumor model P388 Leukemia (intraperitoneal) in CD2F1 (CDF1) mice
Conditions: endpoint: median survival time, higher = longer survival
Procedure, shortened: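 Mice carrying the transplanted tumor received test compound or vehicle. Survival was recorded in each group, and the value is the treated-group measurement divided by that of the vehicle-treated control group.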

[1] = dose: 12.5 mg/kg/injection, schedule: Q01DX009 (ip), vehicle: Klucel (hydroxypropylcellulose) (HPC)
[2] = dose: 25.0 mg/kg/injection, schedule: Q01DX009 (ip), vehicle: Klucel (hydroxypropylcellulose) (HPC)
[3] = dose: 50.0 mg/kg/injection, schedule: Q01DX009 (ip), vehicle: Klucel (hydroxypropylcellulose) (HPC)
[4] = dose: 100.0 mg/kg/injection, schedule: Q01DX009 (ip), vehicle: Klucel (hydroxypropylcellulose) (HPC)
[5] = dose: 50.0 mg/kg/injection, schedule: Q01DX009 (ip), vehicle: saline with Tween-80
[6] = dose: 50.0 mg/kg/injection, schedule: Q01DX009 (ip), vehicle: saline
[7] = dose: 100.0 mg/kg/injection, schedule: Q01DX009 (ip), vehicle: saline
[8] = dose: 200.0 mg/kg/injection, schedule: Q01DX009 (ip), vehicle: saline with Tween-80
[9] = dose: 100.0 mg/kg/injection, schedule: Q01DX001 (ip), vehicle: saline with Tween-80
[10] = dose: 200.0 mg/kg/injection, schedule: Q01DX001 (ip), vehicle: saline with Tween-80
[11] = dose: 400.0 mg/kg/injection, schedule: Q01DX001 (ip), vehicle: saline with Tween-80
[12] = dose: 60.0 mg/kg/injection, schedule: Q01DX005 (ip), vehicle: Klucel (hydroxypropylcellulose) (HPC)
[13] = dose: 120.0 mg/kg/injection, schedule: Q01DX005 (ip), vehicle: Klucel (hydroxypropylcellulose) (HPC)
[14] = dose: 240.0 mg/kg/injection, schedule: Q01DX005 (ip), vehicle: Klucel (hydroxypropylcellulose) (HPC)
[15] = dose: 25.0 mg/kg/injection, schedule: Q01DX005 (ip), vehicle: Klucel (hydroxypropylcellulose) (HPC)
[16] = dose: 50.0 mg/kg/injection, schedule: Q01DX005 (ip), vehicle: Klucel (hydroxypropylcellulose) (HPC)
[17] = dose: 100.0 mg/kg/injection, schedule: Q01DX005 (ip), vehicle: Klucel (hydroxypropylcellulose) (HPC)
[18] = dose: 200.0 mg/kg/injection, schedule: Q01DX005 (ip), vehicle: Klucel (hydroxypropylcellulose) (HPC)
[19] = dose: 60.0 mg/kg/injection, schedule: Q01DX005 (ip), vehicle: saline with Tween-80
[20] = dose: 120.0 mg/kg/injection, schedule: Q01DX005 (ip), vehicle: saline with Tween-80
[21] = dose: 240.0 mg/kg/injection, schedule: Q01DX005 (ip), vehicle: saline with Tween-80
[22] = dose: 12.5 mg/kg/injection, schedule: Q01DX005 (ip), vehicle: Klucel (hydroxypropylcellulose) (HPC)

SMILES: O=c1nc2c3[nH]cnc3ncn2o1
- T/C [1]: 101 % of control
- T/C [2]: 106 % of control
- T/C [3]: 101 % of control and 93 % of control
- T/C [4]: 105 % of control

SMILES: C=CC12CCCCC1CCC(=O)C2 (stereo not drawn)
- T/C [3]: 111 % of control

SMILES: NCCCNCCSP(=O)(O)O
- T/C (dose: 12.5 mg/kg/injection, schedule: Q01DX009 (ip), vehicle: saline with Tween-80): 106 % of control
- T/C (dose: 12.5 mg/kg/injection, schedule: Q01DX009 (ip), vehicle: saline): 108 % of control
- T/C (dose: 25.0 mg/kg/injection, schedule: Q01DX009 (ip), vehicle: saline with Tween-80): 104 % of control
- T/C (dose: 25.0 mg/kg/injection, schedule: Q01DX009 (ip), vehicle: saline): 100 % of control and 104 % of control
- T/C [5]: 95 % of control
- T/C [6]: 103 % of control and 109 % of control
- T/C [7]: 104 % of control and 87 % of control
- T/C [8]: 106 % of control
- T/C (dose: 200.0 mg/kg/injection, schedule: Q01DX009 (ip), vehicle: saline): 112 % of control

SMILES: CC(C)(C)c1ccc(O)c(C(c2cc(C(C)(C)C)ccc2O)c2cc(C(C)(C)C)ccc2O)c1
- T/C [9]: 97 % of control
- T/C [10]: 98 % of control
- T/C [11]: 98 % of control

SMILES: O=C(N=Nc1ccccc1)Nc1ccc(Cl)cc1
- T/C (dose: 50.0 mg/kg/injection, schedule: Q01DX005 (ip), vehicle: saline with Tween-80): 100 % of control
- T/C (dose: 100.0 mg/kg/injection, schedule: Q01DX005 (ip), vehicle: saline with Tween-80): 100 % of control
- T/C (dose: 200.0 mg/kg/injection, schedule: Q01DX005 (ip), vehicle: saline with Tween-80): 90 % of control

SMILES: CCOC(=O)C(C)(C)S(=O)Nc1ccccc1 (stereo not drawn)
- T/C [12]: 99 % of control
- T/C [13]: 99 % of control
- T/C [14]: 102 % of control

SMILES: CSc1cccc(N=C(N)N)c1
- T/C [6]: 100 % of control
- T/C [7]: 98 % of control

SMILES: CC1(C)OC(C)(C)C(=N\O)/C1=N/N
- T/C [12]: 102 % of control
- T/C [13]: 102 % of control
- T/C [14]: 106 % of control

SMILES: Nc1ccc(O)c2c1C(=O)c1c(O)c(S(=O)(=O)O)cc(N)c1C2=O
- T/C [15]: 108 % of control
- T/C [16]: 102 % of control
- T/C [17]: 105 % of control
- T/C [18]: 102 % of control

SMILES: COC1=CC(=O)c2ncccc2C1=O
- T/C (dose: 1.56 mg/kg/injection, schedule: Q01DX009 (ip), vehicle: DMSO): 101 % of control
- T/C (dose: 3.13 mg/kg/injection, schedule: Q01DX009 (ip), vehicle: DMSO): 100 % of control
- T/C (dose: 6.25 mg/kg/injection, schedule: Q01DX009 (ip), vehicle: DMSO): 100 % of control
- T/C (dose: 12.5 mg/kg/injection, schedule: Q01DX009 (ip), vehicle: DMSO): 111 % of control and 96 % of control
- T/C (dose: 25.0 mg/kg/injection, schedule: Q01DX009 (ip), vehicle: DMSO): 101 % of control and 113 % of control

SMILES: COc1ccc2ccc3c(c2c1)C(=O)CC3
- T/C (dose: 12.5 mg/kg/injection, schedule: Q01DX009 (ip), vehicle: distilled water + Tween-80): 101 % of control
- T/C (dose: 25.0 mg/kg/injection, schedule: Q01DX009 (ip), vehicle: distilled water + Tween-80): 98 % of control
- T/C (dose: 50.0 mg/kg/injection, schedule: Q01DX009 (ip), vehicle: distilled water + Tween-80): 107 % of control
- T/C (dose: 100.0 mg/kg/injection, schedule: Q01DX009 (ip), vehicle: distilled water + Tween-80): 98 % of control
- T/C (dose: 200.0 mg/kg/injection, schedule: Q01DX009 (ip), vehicle: distilled water + Tween-80): 98 % of control

SMILES: O=C1C(=Cc2ccccc2O)C(=O)N(c2ccccc2)C(=S)N1c1ccccc1
- T/C [16]: 100 % of control
- T/C [17]: 100 % of control
- T/C [18]: 100 % of control

SMILES: CN(CCC[NH-])CCC[NH-].[Cl][Pd][Cl]
- T/C (dose: 25.0 mg/kg/injection, schedule: Q04DX002 (ip), vehicle: saline): 102 % of control
- T/C (dose: 50.0 mg/kg/injection, schedule: Q04DX002 (ip), vehicle: saline): 102 % of control
- T/C (dose: 100.0 mg/kg/injection, schedule: Q04DX002 (ip), vehicle: saline): 98 % of control

SMILES: COc1ccc(CN2C(=O)C(Cl)=C(Cl)C2=O)c(OC)c1
- T/C [19]: 100 % of control
- T/C [20]: 94 % of control

SMILES: O=C1C=CC(=C2SCCS2)C(O)=C1
- T/C [3]: 100 % of control
- T/C [4]: 93 % of control
- T/C (dose: 200.0 mg/kg/injection, schedule: Q01DX009 (ip), vehicle: Klucel (hydroxypropylcellulose) (HPC)): 97 % of control

SMILES: C=C1[C@@H]2CC[C@@]3([C@@H](C2)[C@@]24CCC[C@@]5(C)CN(CCO)[C@@H]2O[C@@H]3C[C@H]54)[C@@H]1O
- T/C (dose: 2.0 mg/kg/injection, schedule: Q01DX009 (ip), vehicle: Klucel (hydroxypropylcellulose) (HPC)): 97 % of control
- T/C (dose: 4.0 mg/kg/injection, schedule: Q01DX009 (ip), vehicle: Klucel (hydroxypropylcellulose) (HPC)): 97 % of control
- T/C (dose: 8.0 mg/kg/injection, schedule: Q01DX009 (ip), vehicle: Klucel (hydroxypropylcellulose) (HPC)): 98 % of control
- T/C (dose: 16.0 mg/kg/injection, schedule: Q01DX009 (ip), vehicle: Klucel (hydroxypropylcellulose) (HPC)): 94 % of control

SMILES: CCOc1cc(C(C)c2ccc(OC)cc2)c(OCC)cc1OC (stereo not drawn)
- T/C [19]: 106 % of control
- T/C [20]: 100 % of control
- T/C [21]: 103 % of control

SMILES: CCOC(=O)Nc1cc2c(c(N)n1)N=C(CN(C)c1ccccc1)CN2
- T/C (dose: 1.56 mg/kg/injection, schedule: Q01DX009 (ip), vehicle: Klucel (hydroxypropylcellulose) (HPC)): 112 % of control and 123 % of control
- T/C (dose: 3.12 mg/kg/injection, schedule: Q01DX009 (ip), vehicle: Klucel (hydroxypropylcellulose) (HPC)): 100 % of control and 111 % of control
- T/C (dose: 6.25 mg/kg/injection, schedule: Q01DX009 (ip), vehicle: Klucel (hydroxypropylcellulose) (HPC)): 106 % of control and 123 % of control
- T/C [1]: 124 % of control
- T/C [2]: 109 % of control and 123 % of control
- T/C [3]: 98 % of control
- T/C (dose: 67.0 mg/kg/injection, schedule: Q01DX001 (ip), vehicle: Klucel (hydroxypropylcellulose) (HPC)): 195 % of control
- T/C (dose: 100.0 mg/kg/injection, schedule: Q01DX001 (ip), vehicle: Klucel (hydroxypropylcellulose) (HPC)): 178 % of control

SMILES: CCN(CC)CCNC(=O)c1nn(-c2ccc(C)cc2)c2c1N(C)S(=O)(=O)c1ccccc1-2
- T/C [9]: 100 % of control
- T/C [10]: 97 % of control
- T/C [11]: 97 % of control

SMILES: Cc1cccc(C)c1NC(=S)NC(=O)c1ccccc1
- T/C [5]: 100 % of control
- T/C (dose: 100.0 mg/kg/injection, schedule: Q01DX009 (ip), vehicle: saline with Tween-80): 98 % of control
- T/C [8]: 100 % of control

SMILES: C=CCNc1nc2c(s1)c(C)c(O)c1ccccc12
- T/C [19]: 93 % of control
- T/C [20]: 96 % of control
- T/C [21]: 106 % of control

SMILES: CC1=CC(=O)c2c(O)c3c(c(O)c2C1=O)C1C(O)C(C3=O)C23C(=O)c4c(O)c(C)cc(O)c4C(O)=C2C(=O)CC(O)C13 (stereo not drawn)
- T/C (dose: 1.5 mg/kg/injection, schedule: Q01DX005 (ip), vehicle: Klucel (hydroxypropylcellulose) (HPC)): 101 % of control
- T/C (dose: 3.0 mg/kg/injection, schedule: Q01DX005 (ip), vehicle: Klucel (hydroxypropylcellulose) (HPC)): 115 % of control
- T/C (dose: 6.0 mg/kg/injection, schedule: Q01DX005 (ip), vehicle: Klucel (hydroxypropylcellulose) (HPC)): 115 % of control
- T/C (dose: 12.0 mg/kg/injection, schedule: Q01DX005 (ip), vehicle: Klucel (hydroxypropylcellulose) (HPC)): 113 % of control
- T/C [22]: 108 % of control
- T/C [15]: 105 % of control
- T/C [16]: 105 % of control

SMILES: O=CNC(Cc1ccc(O)cc1)C(=O)O (stereo not drawn)
- T/C [22]: 102 % of control and 105 % of control
- T/C [15]: 100 % of control and 104 % of control
- T/C [17]: 101 % of control and 107 % of control
- T/C [18]: 96 % of control
